Molecular target: T1, Recombinant human integrin αVβ3 (Homo sapiens, UniProt P05106+P06756)
T1 construct: purchased R&D Systems, Minneapolis, MN, USA
Test: Inhibition of biotinylated vitronectin binding to purified αVβ3 receptor (solid phase receptor binding assay)
Details: conjugates, Table 2; mean ± SD of triplicate determinations
Procedure: Conjugates 7–11 were evaluated for their ability to inhibit biotinylated vitronectin binding to the purified αVβ3 receptor. Screening assays were performed by incubating the immobilized integrin receptor with solutions of the cyclo[DKP-RGD]-α-amanitin and cyclo[DKP-isoDGR]-α-amanitin conjugates 7–11 at different concentrations (10^−12 to 10^−5 M) in the presence of biotinylated vitronectin (1 µg mL^−1) and measuring bound vitronectin. […]
to assist the dissolution). The solution obtained was filtered (polypropylene, 0.45 μm, 13 mm ø, PK/100) and injected in the HPLC, affording purified products. Purity analyses were carried on a Dionex Ultimate 3000 instrument equipped with a Dionex RS Variable Wavelenght detector (column: Atlantis® Prep T3 OBDTM 5 μm 19 × 100 mm). The analyte (1 mg) was dissolved in 1 mL of H2O and was injected using the same gradient used in the purification step. The analysis of the integrals and the relative percentage of purity were performed with the software Chromeleon 6.80 SR11 Build 3161. Also, preparative HPLC LaPrep∑ equipped with autosampler AS3950 and a Phenomenex Luna C-18(2) column, 10 µm, 250 × 21.2 mm, with precolumn at 30 mL/min flow rate and analytical HPLC performed on Hitachi Chromaster (column oven Chromaster 5310, pump Chromaster 5110, autosampler Chromaster 5210, DAD Chromaster 5430) equipped with a Phenomenex Luna C-18(2) column, 10 µm, 250 × 4.6 mm, with precolumn at 1.4 mL/min flow rate were used. Freeze-drying: The product was dissolved in water and frozen with dry ice. The freeze-drying was carried out at least for 48 h at −50 °C using the instrument 5Pascal Lio5P DGT.
Solid phase receptor binding assays
Recombinant human integrin αVβ3 (R&D Systems, Minneapolis, MN, USA) was diluted to 0.5 µg/mL in coating buffer containing 20 mM Tris-HCl (pH 7.4), 150 mM NaCl, 1 mM MnCl2, 2 mM CaCl2, and 1 mM MgCl2. […] Absorbance at 415 nm was read in a SynergyTM HT Multi-Detection Microplate Reader (BioTek Instruments, Inc.). […]

T1 sequence (P06756 31-992 limits assumed): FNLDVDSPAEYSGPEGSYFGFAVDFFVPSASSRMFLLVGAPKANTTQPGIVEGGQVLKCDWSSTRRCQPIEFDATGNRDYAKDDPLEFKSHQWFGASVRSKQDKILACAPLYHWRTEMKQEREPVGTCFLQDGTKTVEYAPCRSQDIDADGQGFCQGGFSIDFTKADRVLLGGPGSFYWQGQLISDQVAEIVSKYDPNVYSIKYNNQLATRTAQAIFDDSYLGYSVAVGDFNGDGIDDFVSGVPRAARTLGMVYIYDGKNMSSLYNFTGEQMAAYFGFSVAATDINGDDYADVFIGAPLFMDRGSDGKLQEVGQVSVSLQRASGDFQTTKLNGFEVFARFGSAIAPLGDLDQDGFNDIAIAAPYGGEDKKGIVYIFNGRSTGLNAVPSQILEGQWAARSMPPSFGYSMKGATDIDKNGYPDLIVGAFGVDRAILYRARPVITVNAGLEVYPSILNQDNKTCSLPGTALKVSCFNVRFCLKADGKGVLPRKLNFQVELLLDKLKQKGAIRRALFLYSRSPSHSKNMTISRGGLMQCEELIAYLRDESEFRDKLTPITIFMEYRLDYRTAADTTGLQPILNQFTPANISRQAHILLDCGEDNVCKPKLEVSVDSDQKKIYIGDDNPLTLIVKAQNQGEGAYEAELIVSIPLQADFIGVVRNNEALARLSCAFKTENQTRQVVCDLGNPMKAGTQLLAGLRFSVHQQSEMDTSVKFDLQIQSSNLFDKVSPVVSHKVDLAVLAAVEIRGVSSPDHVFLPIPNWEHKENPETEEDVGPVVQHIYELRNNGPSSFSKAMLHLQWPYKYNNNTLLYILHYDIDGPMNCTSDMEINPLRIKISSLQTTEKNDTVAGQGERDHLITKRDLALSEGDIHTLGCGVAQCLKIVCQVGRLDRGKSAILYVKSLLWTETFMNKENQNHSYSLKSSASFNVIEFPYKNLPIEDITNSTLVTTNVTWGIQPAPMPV
T1 sequence (P05106 27-718 limits assumed): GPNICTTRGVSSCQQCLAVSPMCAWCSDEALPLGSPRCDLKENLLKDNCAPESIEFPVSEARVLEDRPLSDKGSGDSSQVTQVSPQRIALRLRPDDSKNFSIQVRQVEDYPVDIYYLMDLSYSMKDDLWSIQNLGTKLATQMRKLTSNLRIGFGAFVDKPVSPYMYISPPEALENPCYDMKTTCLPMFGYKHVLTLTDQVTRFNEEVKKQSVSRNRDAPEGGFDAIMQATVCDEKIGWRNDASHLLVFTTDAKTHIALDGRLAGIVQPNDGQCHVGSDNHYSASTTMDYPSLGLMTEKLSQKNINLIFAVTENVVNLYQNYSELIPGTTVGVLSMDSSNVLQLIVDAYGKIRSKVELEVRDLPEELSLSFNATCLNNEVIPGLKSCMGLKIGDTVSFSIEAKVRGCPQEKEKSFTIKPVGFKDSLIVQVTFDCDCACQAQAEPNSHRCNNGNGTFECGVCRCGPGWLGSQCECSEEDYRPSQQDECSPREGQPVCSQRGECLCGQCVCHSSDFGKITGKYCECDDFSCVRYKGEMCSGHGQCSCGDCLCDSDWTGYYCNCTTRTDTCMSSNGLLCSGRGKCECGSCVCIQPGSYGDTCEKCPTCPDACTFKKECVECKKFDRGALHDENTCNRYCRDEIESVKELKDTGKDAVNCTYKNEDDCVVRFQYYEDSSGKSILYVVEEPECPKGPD

CC[C@H](C)[C@@H]1NC(=O)CNC(=O)[C@@H]2Cc3c([nH]c4cc(OCc5ccc(NC(=O)[C@H](C)NC(=O)[C@@H](NC(=O)CCCC(=O)NCc6ccc(CN7C(=O)[C@H]8CC(=O)N[C@H](C(=O)O)CC(=O)NCC(=O)N[C@@H](CCCNC(=N)N)C(=O)NC[C@H]7C(=O)N8)cc6)C(C)C)cc5)ccc34)[S@+]([O-])C[C@H](NC(=O)CNC1=O)C(=O)N[C@@H](CC(N)=O)C(=O)N1C[C@H](O)C[C@H]1C(=O)N[C@@H]([C@@H](C)[C@@H](O)CO)C(=O)N2 [Compound 10, cyclo[DKP-isoDGR]-Val-Ala-α-amanitin]
IC50: 6.4 ± 1.9 nM

Reference: paper PMC5827777, “Synthesis and biological evaluation of RGD and isoDGR peptidomimetic-α-amanitin conjugates for tumor-targeting” (Beilstein Journal of Organic Chemistry, 2018)
